In brackets after ≈: the same amount, converted by molar mass. Structures can show the parent of a compound that is named as a salt.
What was measured:
[1] = tested on: P388 (mouse lymphoid neoplasma cell); assay: In vitro antitumor effects against animal leukemia cells (dye exclusion assay), P388; assay type: cell-based; conditions: 50% cell growth inhibition, 37° C., trypan blue; for ED50: 48 hours, 2880 min; for IC50: Mus musculus, P388, 48 h, read-out: ED50 (the source's name)
Procedure: P388 (mouse lymphoid neoplasma cell)
(§1) B. Method of Experiment(Dye Exclusion Assay)
(§2) 2) Sample drugs diluted with log dose were added into the cells, and it were cultured at 37° C., for 48 hours, in […] incubater, and then viable cell number was measured, Viable cell number was measured with dye exclusion test using trypan blue.

[2] = tested on: mouse leukemia P388 cells; assay: In vivo antitumor effects against mouse leukemia P388 cells; conditions: for T/C (%) etc.: days 1, 5, 9, median survival time; for antitumor effect in P388 mice: in words
Procedure: 1) Leukemia P388 cells being transfer-cultured succesively in DBA/2 mouse, were grafted i.p. into each mouse of a group comprising 8 mice of 6 week old BDFI mouse as the dose of 1×10^6 cells/0.1 ml.
2) Sample drugs were dissolved in PBS or suspended in 0.5% Tween 80, and then injected into abdominal cavity of mouse at each prescribed concentration on days 1, 5, 9, respectively.
3) With observation every day, survival times of tested mice were measured. Antitumor activities was determined in such a manner that the increasing ratio(T/C %) of average survival days of drug-treated groups compared with the control group was calculated using the mean survival times of each tested groups.
* Experimental Conditions for Mouse P388
(§3) Animal: BDFI mouse (8 mice/group)
Inoculum size: 10^6 cells/mouse
(§4) Treatment time: days 1, 5, 9
(§5) Parameter: median survival time

[3] = tested on: L1210 (mouse leukemia cell); assay: In vitro antitumor effects against animal leukemia cells (dye exclusion assay), L1210; assay type: cell-based; conditions: 50% cell growth inhibition, 37° C., trypan blue; for IC50: Mus musculus, L1210, 48 h, read-out: ED50 (the source's name); for ED50: 48 hours, hydrochloride, 2880 min
Procedure: L1210(mouse leukemia cell)
as §1, §2

[4] = tested on: 5 kinds of human solid cancer cell lines; assay: In vitro antitumor activity against 5 human solid cancer cell lines compared with cisplatin (SRB assay); assay type: cell-based; conditions: in words
Procedure: Antitumor activities of the compounds of present invention were tested. Antitumor activities of compounds of the present invention were tested in vitro against 5 kinds of human tumor cell lines and 2 kinds of leukemia tumor cell lines. The method of in vitro test is as follows.
B. Method of test(SRB Assay Method)
a. Human solid tumor cell lines, […](non-small lung cell), SKMEL-2(melanoma), HCT-15(colon), SKOV-3(ovarian), XF-498(CNS) were cultured at 37° C., in 5% CO2 incubater using the RPMI 1640 media containing 10% FBS, while they were transfer-cultured successively once or twice per week. Cell cultures were dissolved into the solution of 0.25% trypsin and 3 mM CDTA PBS(-) and then cells were separated from media which the cells were sticked on.
b. 5×10^3 -2×10^4 cells were added into each well of 96-well plate and cultured in 5% CO2 incubater, at 37° C., for 24 hours.
c. Each sample drugs was dissolved in a small quantity of DMSO, and diluted to concentrations prescribed in experiment with media, and then the final concentration of DMSO was controlled below 0.5%.
d. A medium of each well cultured for 24 hours as above b., was removed by aspiration. 200 μl of drug samples prepared in c. was added into each well and the wells were cultured for 48 hours. Tz(time zero) plates were collected at the point of time drugs were added.
e. After Tz plates and plates were treated with cell fixing by TCA of SRB assay method, staining of 0.4% SRB solution, washing with 1% acetic acid, OD values were measured at 520 nm, following elution of dye with 10 mM Tris solution.
e. If T≥Tz, cellular response function was calculated with 100×(T-Tz)/(C-Tz), and if T<Tz, with 100×(T-Tz)/Tz.

[5] = tested on: L1210 and P388 mouse cancer cells; assay: In vitro antitumor activity against L1210 and P388 compared with mitomycin C (dye exclusion assay); assay type: cell-based; conditions: in words
Procedure: as §1
1) L-1210 and P388 cells that were cultured in RPMI 1640 media containing 10% FBS were regulated as the cell concentration of 1×10^6 cells/ml.
as §2
3) The concentration of sample compounds of 50% cell growth inhibition compared with standard group was determined as IC50.

B16 Melanoma = assay: In vivo antitumor activities against mouse solid tumor, B16 melanoma; conditions: for T/C (%) Etc.: days 1, 5, 9, median survival time; for antitumor activities in B16 mouse melanoma: in words
Procedure: BDF1 mouse was used in experiment while being successively transfer cultured in C57BL/6 mice by s.c.
1) After 1 g of tumor was added into cold balanced salt solution up to be 10 ml, it was homogenized (10:1,brei).
2) 0.5 ml Brei of the above 1) were grafted into each BDFI mouse by i.p.
3) Median survival time was measured, and the activity was determined in such a manner that if T/C was over 125%, it presented moderate activity, while if it is over 150%, it had significant activity.
* Experimental Conditions for Mouse B16 Melanoma.
as §3
Inoculum size: 10^5 cells/mouse
as §4, §5

ICR mice = assay: Acute toxicity test (LD50), Litchfield-Wilcoxon method; assay type: in vivo, mouse; set-up: unit not given here; conditions: male ICR mice, 14 days

| SMILES | ED50 [1] | T/C (%) etc. ([2]; 50 mg/kg i.p.) | T/C (%) etc. ([2]; 100 mg/kg i.p.) | antitumor effect in P388 mice [2] | IC50 [3] | antitumor activities compared with cisplatin [4] | IC50 [1] | antitumor activities compared with mitomycin C [5] | T/C (%) Etc. (B16 Melanoma; Dose 50 (unit not given) i.p.) | T/C (%) Etc. (B16 Melanoma; Dose 100 (unit not given) i.p.) | T/C (%) Etc. (B16 Melanoma; Dose 200 (unit not given) i.p.) | antitumor activities in B16 mouse melanoma (B16 Melanoma) | LD50 (ICR mice; i.p.) | LD50 (ICR mice; p.o.) | ED50 ([1]; hydrochloride) | ED50 [3] |
| --- | --- | --- | --- | --- | --- | --- | --- | --- | --- | --- | --- | --- | --- | --- | --- | --- |
| CCc1cc(NC(=O)N2CCN(c3ccccc3OC)CC2)c(OC)nc1C [Example 1, 1-[(5-ethyl-2-methoxy-6-methylpyridin-3-yl)aminocarbonyl]-4-(2-methoxyphenyl)piperazine] | 0.6 µg/mL (≈ 1.56 µM) | 109.1% | 134.6% | significant antitumor effect | 1.6 µg/mL (≈ 4.16 µM) | superior antitumor activities to those of cisplatin | – | – | – | – | – | – | – | – | – | – |
| CCc1cc(NC(=O)N2CCN(c3cc(OC)cc(OC)c3)CC2)c(OC)nc1C [Example 6, 1-[(5-ethyl-2-methoxy-6-methylpyridin-3-yl)aminocarbonyl]-4-(3,5-dimethoxyphenyl)piperazine] | – | 133.3% | 183.3% | significant antitumor effect | 0.6 µg/mL (≈ 1.45 µM) | superior antitumor activities to those of cisplatin | 0.3 µg/mL (≈ 0.724 µM) | same or more excellent antitumor activities | 127.3% | 124.2% | 139.4% | significant antitumor activities | 248.5 | > 622 | – | – |
| CCc1cc(NC(=O)N2CCN(c3cccc(Cl)c3)CC2)c(OC)nc1C [Example 16, 1-[(5-ethyl-2-methoxy-6-methylpyridin-3-yl)aminocarbonyl]-4-(3-chlorophenyl)piperazine] | – | 113.6% | 131.8% | significant antitumor effect | 1.8 µg/mL (≈ 4.63 µM) | – | 1.6 µg/mL (≈ 4.11 µM) | – | 115.2% | 127.3% | 118.2% | significant antitumor activities | – | – | – | – |
| CCc1cc(NC(=O)N2CCN(c3cc(C)cc(C)c3)CC2)c(OC)nc1C [Example 29, 1-[(5-ethyl-2-methoxy-6-methylpyrdin-3-yl)aminocarbonyl]-4-(3,5-dimethylphenyl)piperazine] | – | 136.4% | 190.9% | significant antitumor effect | 0.4 µg/mL (≈ 1.05 µM) | superior antitumor activities to those of cisplatin | 0.5 µg/mL (≈ 1.31 µM) | same or more excellent antitumor activities | – | – | – | – | – | – | – | – |
| COc1ccccc1N1CCN(C(=O)Nc2cc(C)c(C)nc2OC)CC1 [Example 108] | – | – | – | – | 0.8 µg/mL (≈ 2.16 µM) | superior antitumor activities to those of cisplatin | 0.9 µg/mL (≈ 2.43 µM) | same or more excellent antitumor activities | – | – | – | – | > 2,000 | > 3,110 | – | – |
| COc1cc(OC)cc(N2CCN(C(=O)Nc3cc(C)c(C)nc3OC)CC2)c1 [Example 118, 1-[(5,6-dimethyl-2-methoxypyridin-3-yl)aminocarbonyl]-4-(3,5-dimethoxyphenyl)piperazine] | – | – | – | – | 0.06 µg/mL (≈ 0.15 µM) | superior antitumor activities to those of cisplatin | 0.06 µg/mL (≈ 0.15 µM) | same or more excellent antitumor activities | – | – | – | – | 182.8 | 571.8 | – | – |
| COc1ccccc1N1CCN(C(=S)Nc2cc(C)c(C)nc2OC)CC1 [Example 128] | – | – | – | – | 0.5 µg/mL (≈ 1.29 µM) | superior antitumor activities to those of cisplatin | 0.2 µg/mL (≈ 0.517 µM) | same or more excellent antitumor activities | – | – | – | – | – | – | – | – |
| CCc1cc(NC(=O)N2CCN(c3ccccc3OC)CC2)c(OC)nc1C [Example 148, 1-[(5-ethyl-2-methoxy-6-methylpyridin-3-yl)aminocarbonyl]-4-[(2-methoxyphenyl)piperazine-2-yl]piperazine salt of hydrochloride] | – | – | – | – | – | – | – | same or more excellent antitumor activities | – | – | – | – | 425.3 | – | 1.3 µg/mL | 1.5 µg/mL |
| CCc1cc(NC(=O)N2CCN(c3cccc(Cl)c3)CC2)c(OC)nc1C [Example 149, 1-[(5-ethyl-2-methoxy-6-methylpyridin-3-yl)aminocarbonyl]-4-(3-chlorophenyl)piperazine salt of hydrochloride] | – | – | – | – | – | superior antitumor activities to those of cisplatin | – | same or more excellent antitumor activities | – | – | – | – | 410.5 | – | – | 0.9 µg/mL |
